{
  "source": "patent US10898476B2",
  "about": "“Heat shock proteins and cholesterol homeostasis” (Orphazyme A/S, priority 2016, dated 2021)",
  "key": {"[1]": {"system": "LXR targets such as ABCA1, FABP4 and GRAMD1A", "assay": "RNA sequencing of LXR targets in macrophage foam cells", "type": "cell-based, human", "details": "during cholesterol efflux; 4 blood donors; FIG. 5", "description": "FIG. 5 The effect of rHSP70 on transcript levels of selected LXR targets in primary human macrophage foam cells. Macrophage foam cells from 4 individual blood donors were incubated −/+rHSP70 during cholesterol efflux and RNAs were extracted. RNA sequencing was performed by Illumina NextSeq sequencer. RNASeq results were analysed using “Gene Set Enrichment Analysis”. Selected LXR pathway targets modulated by rHSP70 administration were plotted against their transcript count numbers. Front row: FABP4; middle row: GRAMD1A; back row: ABCA1.\n(§1) Effect of rHsp70 on the transcript and protein levels of LXR targets in primary human macrophage foam cellsMacrophage foam cells from 4 individual blood donors were incubated −/+rHSP70 during cholesterol efflux and RNAs were extracted. RNA sequencing was performed by Illumina NextSeq sequencer. RNASeq results were analysed using “Gene Set Enrichment Analysis”."}, "[2]": {"system": "LXR targets (ABCA1, GRAMD1A, FABP4)", "assay": "Western blotting of LXR targets in macrophage foam cells", "type": "cell-based, human", "details": "during cholesterol efflux; FIG. 6", "description": "FIG. 6 The effect of rHSP70 on protein levels of selected LXR targets in primary human macrophage foam cells. Cells (as described for FIG. 5) were harvested and equal amounts of protein separated by SDS-PAGE and analyzed by Western blotting. Data are mean±SEM, n=7 blood donors. *: p<0.05; **: p<0.01. (a) ABCA1, (b) GRAMD1A, (c) FABP4.\nas §1"}, "ABCA1 [3]": {"system": "ABCA1", "assay": "ABCA1 protein levels by Western blotting in macrophage foam cells", "type": "cell-based, human", "details": "during cholesterol loading and efflux; FIG. 2b", "description": "(§2) FIG. 2 Effect of rHsp70 on ABCA1 transcript and protein levels in primary human macrophage foam cells. Macrophages were loaded with acLDL followed by cholesterol efflux to complete medium in the absence or presence of rHSP70. (a) The ABCA1 mRNA levels were measured by qRT-PCR. Data are mean±SEM, n=6 blood donors with triplicate measurements. (b) Cells were harvested and equal amounts of protein separated by SDS-PAGE and analyzed by Western blotting using a polyclonal anti-ABCA1 antibody. ProAct staining was used as a loading control. Data are mean±SEM, n=7 blood donors.\n(§3) Cells were collected in PBS and centrifuged at 2000 rpm for 10 min at 4° C. Cell pellets were lysed in either RNA lysis buffer or in RIPA buffer containing protease inhibitors for transcript or protein analysis.\nProtein lysates were cleared by centrifugation at 12000 rpm for 10 min at 4° C. Protein concentration was determined using the Bio-Rad protein assay kit. Equal amount of total protein was loaded on 8% SDS-polyacrylamide gel and Western blotting was performed using polyclonal anti-ABCA1 antibody (1:500, Novus Biologicals). The primary antibody was detected with anti-rabbit secondary antibody (1:2000, Sigma). The blots were developed using the Enhanced Chemiluminiscense kit (Amersham). Protein bands were normalized to Proact membrane stain (Amresco). Quantitation of protein bands was performed using ImageJ program."}, "[4]": {"system": "primary human macrophage foam cells", "assay": "Cholesterol efflux from acLDL-loaded macrophage foam cells to complete medium, lipids by TLC", "type": "cell-based", "description": "FIG. 1 rHSP70 stimulates the removal of cholesterol from primary human macrophage foam cells. Differentiated human macrophages were loaded with acLDL (50 μg/mL) for 3 days. Cholesterol efflux was performed for 12 h to complete medium in the presence or absence of rHSP70 (20 ug/ml). Lipids were analyzed by TLC. Pooled data from 8 blood donors from 8 independent experiments and three technical replicates, mean±SEM.\nFIG. 3 The effect of rHsp70 dose and BMP binding on cholesterol efflux from primary human macrophage foam cells. Macrophages were loaded with acLDL followed by cholesterol efflux to complete medium in the absence or presence of rHSP70 as in FIG. 1. Either wild-type or W90F mutant (mut) rHsp70 was employed at the final concentrations of 20 or 200 μg/mL Pooled data from 2 individual donors with 3 technical replicates, mean±SEM.\nHuman primary white blood cells, isolated from healthy blood donors were acquired form the Finnish Red Cross (permit number 21/2015). Peripheral blood mononuclear cells (PBMCs) were isolated by Ficoll layering (Boyum, A., 1964) with Ficoll-Paque Premium (GE Healthcare). […]\nCells were harvested in 2% NaCl solution and lipids were extracted as described in Bligh and Dyer (1959). […] The TLC plate was charred and free cholesterol and cholesterol ester bands were quantitated using ImageJ. […]"}, "ABCA1 [5]": {"system": "ABCA1", "assay": "ABCA1 mRNA levels by qRT-PCR in macrophage foam cells", "type": "cell-based, human", "details": "during cholesterol loading and efflux; normalized to 18S mRNA; FIG. 2a", "description": "as §2, §3\nTotal RNA was isolated using NucleoSpin RNA isolation kit (Macherey-Nagel). 1.5 μg of total RNA was transcribed using SuperScript VILO cDNA synthesis kit (Invitrogen). abca1 primers Fwd 5′-[…], Rev 5′-[…] (Sigma) and 18S primers Fwd 5′-[…], Rev 5′-CCCCGCGAGCACAGA (Sigma) were used for qRT-PCR with Light Cycler 480 SYBER Green I Master Mix (Roche). Reaction mixtures were prepared according to the manufacturer's instructions. Reaction steps: 95° C. 15 min and 40 cycles of 95° C. 15 sec, 60° C. 30 sec and 72° C. 10 sec. […] Relative quantities of mRNAs were normalized to 18S mRNA."}, "[6]": {"system": "primary murine bone marrow macrophage foam cells", "assay": "BODIPY-cholesterol efflux to 6% HDL enriched serum, confocal imaging", "type": "cell-based", "details": "24 h efflux to 6% HDL enriched serum; FIG. 4", "description": "FIG. 4 rHSP70 speeds up BODIPY-cholesterol efflux from primary murine macrophage foam cells. Primary murine bone marrow macrophage foam cells were incubated with BODIPYcholesteryl linoleate-LDL particles. Cholesterol efflux was performed for 24 h to 6% HDL enriched serum in the presence or absence of rHSP70. Images were taken using Leica SP8 scanning confocal microscope at the indicated time points. (a) Total cell BODIPY-cholesterol intensity changes were calculated using ImageJ and data normalized to 0 h. (b) Representative images of BODIPY-cholesterol intensity changes over time. n=60-100 cells/condition. *: p<0.05.\nrHSP70 speeds up BODIPY-cholesterol efflux from primarymurine macrophage foam cells. Primary murine bone marrow macrophage foam cells were incubated with BODIPYcholesteryl linoleate-LDL particles. Cholesterol efflux was performed for 24 h to 6% HDL enriched serum in the presence or absence of rHSP70."}, "[7]": {"system": "acid sphingomyelinase (ASMase)", "details": "via binding to bismonoacylglycerophosphate (BMP); Mahalka et al, 2014; cited from earlier work"}},
  "data": [
    {"substance": "rHSP70: His-tagged recombinant wildtype Hsp70 supplied by Orphazyme ApS, Denmark", "values": [
      {"measurement": "transcript levels of LXR targets", "setting": "[1]", "value": "major transcriptional re-programming"},
      {"measurement": "protein levels of LXR targets", "setting": "[2]", "value": "These changes can also be seen at the protein level"},
      {"measurement": "ABCA1 protein level", "setting": "ABCA1 [3]", "value": "significant increase"},
      {"measurement": "cholesterol removal (efflux) from foam cells", "setting": "[4]; 20 ug/ml, 16 h pretreatment during loading, then 12 h efflux to complete medium (RPMI, 10% FBS), FIG. 1, FIG. 3", "value": "significantly enhanced"},
      {"measurement": "whether a higher dosage improves the cholesterol efflux promoting effect", "setting": "[4]; 200 ug/ml compared with 20 ug/ml, before and during 12 h efflux, FIG. 3", "value": "found not to be the case"},
      {"measurement": "ABCA1 transcript level", "setting": "ABCA1 [5]", "value": "significant increase"},
      {"measurement": "BODIPY-cholesterol efflux", "setting": "[6]", "value": "speeds up"},
      {"measurement": "activity of acid sphingomyelinase (ASMase)", "setting": "[7]", "value": "stabilize and enhance"}
    ]}
  ]
}
